As usually defined, the inhibition is the share of the control response that was lost under treatment.

The assay has as its target T1, HIV-1 RT (Human immunodeficiency virus type 1 group M subtype B, UniProt P03367).
T1 construct: Reverse transcriptase enzyme from the LAV strain of Human Immunodeficiency Virus (HIV-1) (1) was isolated from the bacterial strain JM109; made in house; host or cells: E. coli JM109, clone pBRTprtl+ in vector pIB121 under the lac promoter
Put plainly: Reverse Transcriptase (RT) Assay: inhibition of RNA-dependent DNA polymerase activity. The assay is classed as biochemical. As to conditions: tested at a concentration of 10µg/ml; read-out: inhibit the enzyme (percent inhibition of RNA-dependent DNA polymerase activity of HIV-1 RT). From the text:
Utilizing the Reverse Transcriptase (RT) Assay described below, compounds can be tested for their ability to inhibit the RNA-dependent DNA polymerase activity of HIV-1 RT. The compound described in Example 1, which appears below, was so tested.
Among the enzymes for which Human Immunodeficiency Virus (HIV-1) encodes is a reverse transcriptase (1), so-named because it transcribes a DNA copy from an RNA template. This activity can be quantitatively measured in a cell-free enzyme assay which has been previously described (2), and is based upon the observation that reverse transcriptase is able to use a synthetic template [poly r(C) primed with oligo d(G)] to transcribe a radio-labelled, acid-precipitable DNA strand utilizing ³H-dGTP as a substrate.
Reverse transcriptase enzyme from the LAV strain of Human Immunodeficiency Virus (HIV-1) (1) was isolated from the bacterial strain JM109 (3) expressing the DNA clone pBRTprtl+ (2) which is under the control of the lac promotor in the expression vector pIB121 (4). […]
The 2X concentrated stock reaction mixture is aliquoted and stored at -20°C. […] Each vial receives 2 ml of scintillation cocktail and is counted in a Beckman beta counter. […]

For the molecule `CCCN1C(=O)c2cccnc2Oc2ncccc21` [Example 1, 5,6-Dihydro-5-propyl-6H-dipyrido[3,2-b:2′,3′-e][1,4]oxazepin-6-one], the inhibition at 10 µg/mL came to 30%.

Values taken from patent EP0415304A2, “Dipyrido[3,2-b:2',3'-e][1,4]oxazepin (and thiazepin)-6(5H)-ones and their use in the prevention or treatment of aids” (BOEHRINGER INGELHEIM PHARMACEUTICALS INC., priority 1989, dated 1991).
